Tested on: yeast genes (level of expressed mRNA)
Assay: DNA chip analysis of expressed mRNA of yeast genes after 2 h culture with a toxic chemical substance
Format: cell-based, Saccharomyces cerevisiae S288C
Details: for The level of expressed mRNA in the presence of chemical substance/ (ratio to absence of chemical substance): stress protein genes, DNA chip
Protocol: Yeast (Saccharomyces cerevtisiae S288C (α SUC2mal mel gap2 CUP1)) were cultured at 25° C. on YPD medium (yeast extract 1%, polypepton 2%, glucose 2%). One of toxic chemical substances was added to the cell at logarithmic growth phase, and the cell was further cultured for two hours. Cell was cultured without any chemical substance in the same condition, and was used as control. Concentrations of the chemical substances were defined to inhibit the growth of the yeast but not lead to death.
After the completion of cultivation, the culture was centrifuged to collect the cells. To the cells, sodium acetate buffer (50 mM sodium acetate, 10 mM EDTA, 1% SDS) was added, and the mixture was shaken at 65° C. for five minutes, followed by returning to room temperature, and obtaining the supernatant, which procedure was repeated two times. To the supernatant, ½ amount of a solution of phenol/chloroform was added, and the mixture was centrifuged to give a supernatant, which was added with an equal amount of chloroform, and the mixture was centrifuged to give a supernatant. To the supernatant, an equal amount of isopropanol containing 0.3 M sodium acetate was added, and the mixture was allowed to stand at room temperature for 30 minutes, after which the mixture was centrifuged to give a sediment of the whole RNAs. Seventy % ethanol was added to the sediment, and the mixture was again centrifuged to give a sediment, which was then dried and dissolved in water. mRNA was isolated from the whole RNAs as followings. In view of the fact that a poly A chain is attached to the 3′ terminus of mRNA, a polynucleotide having a poly T structure which was immobilized on the surface of latex beads was used to trap the mRNA, and then the mRNA was washed and eluted with spine column (Oligotex-dT30<Super>mRNA Purification Kit, Takara). Reverse transcription of the mRNA was conducted with a reverse transcriptase (Super Script II Reverse Transcriptase; catalogue No. 18064-014, GibcoBRL) using fluorescence-labeled nucleotides to give cDNAs that were introduced with Cy3-dUTP or Cy5-dUTP during the reverse transcription.
The labeled cDNAs were dissolved in TE buffer (10 mM Tris-HCl/1 mM EDTA, pH8.0), and the solution was dropped on the DNA chip containing the whole genes of yeast (DNA Chip Research Inc. Japan) so that the cDNAs were hybridized on the DNA chip at 65° C. for over 12 hours. The fluoresces intensity of the DNA chip was read with a scanner, and the ratio relative to the fluorescence intensity resulting from the absence of chemical substance was estimated as the following, which is shown in Tables 1 to 9: [formula]
In the Tables, “Intensity” indicated in the rightmost column is a value of the level of expressed mRNA of each gene in control cells as divided by the average level of the expressions of the whole genes.

## CCCCC[C@H](O)CC(=O)CCc1ccc(O)c(OC)c1 [(13), gingerol]
Yeast gene YIL140W
  The level of expressed mRNA in the presence of chemical substance/The level of expressed mRNA in the absence of chemical substance: 0.5
Yeast gene YJL070C, ratio of DNA chip fluorescence intensity to that without chemical substance
  The level of expressed mRNA in the presence of chemical substance/ (in its absence), gene YJL070C: 1.8
Yeast gene YJL073W
  The level of expressed mRNA in the presence of chemical substance/The level of expressed mRNA in the absence of chemical substance: 1.6
Yeast gene YJL089W
  The level of expressed mRNA in the presence of chemical substance/The level of expressed mRNA in the absence of chemical substance: 1.8
Yeast gene YJL096W, mitochondria-located protein genes, 2 h culture with chemical
  The level of expressed mRNA in the presence of chemical substance/ (ratio to absence), gene YJL096W: 0.7
Yeast gene YJL116C
  The level of expressed mRNA in the presence of chemical substance/The level of expressed mRNA in the absence of chemical substance: 4.3
Yeast gene YJL158C
  The level of expressed mRNA in the presence of chemical substance/ (ratio to absence of chemical substance): 0.4
Yeast gene YJL167W, ratio of DNA chip fluorescence intensity to that without chemical substance
  The level of expressed mRNA in the presence of chemical substance/ (in its absence), gene YJL167W: 0.9
Yeast gene YJL180C, mitochondria-located protein genes, 2 h culture with chemical
  The level of expressed mRNA in the presence of chemical substance/ (ratio to absence), gene YJL180C: 1.2
Yeast gene YJL216C, ratio of DNA chip fluorescence intensity to that without chemical substance
  The level of expressed mRNA in the presence of chemical substance/ (in its absence), gene YJL216C: 1.1
Yeast gene YJR004C
  The level of expressed mRNA in the presence of chemical substance/The level of expressed mRNA in the absence of chemical substance: 0.3
Yeast gene YJR086W
  The level of expressed mRNA in the presence of chemical substance/The level of expressed mRNA in the absence of chemical substance: 0.9
Yeast gene YJR090C
  The level of expressed mRNA in the presence of chemical substance/ (ratio to absence of chemical substance): 2.2
Yeast gene YKL008C
  The level of expressed mRNA in the presence of chemical substance/The level of expressed mRNA in the absence of chemical substance: 1.7
Yeast gene YKL013C
  The level of expressed mRNA in the presence of chemical substance/The level of expressed mRNA in the absence of chemical substance: 1.3
Yeast gene YKL039W
  The level of expressed mRNA in the presence of chemical substance/The level of expressed mRNA in the absence of chemical substance: 1.9
Yeast gene YKL041W
  The level of expressed mRNA in the presence of chemical substance/The level of expressed mRNA in the absence of chemical substance: 1.3
Yeast gene YKL096W
  The level of expressed mRNA in the presence of chemical substance/The level of expressed mRNA in the absence of chemical substance: 0.1
Yeast gene YKL164C
  The level of expressed mRNA in the presence of chemical substance/ (ratio to absence of chemical substance): 0.9
Yeast gene YKL165C
  The level of expressed mRNA in the presence of chemical substance/The level of expressed mRNA in the absence of chemical substance: 3.2
Yeast gene YKL193C
  The level of expressed mRNA in the presence of chemical substance/The level of expressed mRNA in the absence of chemical substance: 2.1
Yeast gene YKR009C, ratio of DNA chip fluorescence intensity to that without chemical substance
  The level of expressed mRNA in the presence of chemical substance/ (in its absence), gene YKR009C: 1.8
Yeast gene YKR034W, ratio of DNA chip fluorescence intensity to that without chemical substance
  The level of expressed mRNA in the presence of chemical substance/ (in its absence), gene YKR034W: 1.2
Yeast gene YKR053C
  The level of expressed mRNA in the presence of chemical substance/ (ratio to absence of chemical substance): 0.7
Yeast gene YKR058W, energy system protein genes, 2 h culture with the chemical, ratio to control without chemical
  The level of expressed mRNA in the presence of chemical substance/ in its absence, gene YKR058W: 0.7
Yeast gene YLR006C, ratio of DNA chip fluorescence intensity to that without chemical substance
  The level of expressed mRNA in the presence of chemical substance/ (in its absence), gene YLR006C: 0.8
Yeast gene YLR006C
  The level of expressed mRNA in the presence of chemical substance/ (ratio to absence of chemical substance): 0.8
Yeast gene YLR120C
  The level of expressed mRNA in the presence of chemical substance/The level of expressed mRNA in the absence of chemical substance: 4.8
Yeast gene YLR136C
  The level of expressed mRNA in the presence of chemical substance/The level of expressed mRNA in the absence of chemical substance: 2.9
Yeast gene YLR178C
  The level of expressed mRNA in the presence of chemical substance/The level of expressed mRNA in the absence of chemical substance: 7.5
Yeast gene YLR250W
  The level of expressed mRNA in the presence of chemical substance/The level of expressed mRNA in the absence of chemical substance: 1.2
Yeast gene YLR295C, energy system protein genes, 2 h culture with the chemical, ratio to control without chemical
  The level of expressed mRNA in the presence of chemical substance/ in its absence, gene YLR295C: 0.8
Yeast gene YLR295C, mitochondria-located protein genes, 2 h culture with chemical
  The level of expressed mRNA in the presence of chemical substance/ (ratio to absence), gene YLR295C: 0.8
Yeast gene YLR327C
  The level of expressed mRNA in the presence of chemical substance/The level of expressed mRNA in the absence of chemical substance: 2.8
Yeast gene YLR351C, ratio of DNA chip fluorescence intensity to that without chemical substance
  The level of expressed mRNA in the presence of chemical substance/ (in its absence), gene YLR351C: 0.9
Yeast gene YLR356W
  The level of expressed mRNA in the presence of chemical substance/The level of expressed mRNA in the absence of chemical substance: 2.5
Yeast gene YLR362W
  The level of expressed mRNA in the presence of chemical substance/The level of expressed mRNA in the absence of chemical substance: 2.4
Yeast gene YLR375W, ratio of DNA chip fluorescence intensity to that without chemical substance
  The level of expressed mRNA in the presence of chemical substance/ (in its absence), gene YLR375W: 1.6
Yeast gene YLR391W
  The level of expressed mRNA in the presence of chemical substance/The level of expressed mRNA in the absence of chemical substance: 0.9
Yeast gene YLR429W
  The level of expressed mRNA in the presence of chemical substance/The level of expressed mRNA in the absence of chemical substance: 2.3
Yeast gene YML129C, energy system protein genes, 2 h culture with the chemical, ratio to control without chemical
  The level of expressed mRNA in the presence of chemical substance/ in its absence, gene YML129C: 1.0
Yeast gene YML129C, mitochondria-located protein genes, 2 h culture with chemical
  The level of expressed mRNA in the presence of chemical substance/ (ratio to absence), gene YML129C: 1.0
Yeast gene YMR004W
  The level of expressed mRNA in the presence of chemical substance/The level of expressed mRNA in the absence of chemical substance: 2.2
Yeast gene YMR023C, mitochondria-located protein genes, 2 h culture with chemical
  The level of expressed mRNA in the presence of chemical substance/ (ratio to absence), gene YMR023C: 1.1
Yeast gene YMR094W
  The level of expressed mRNA in the presence of chemical substance/The level of expressed mRNA in the absence of chemical substance: 1.4
Yeast gene YMR104C
  The level of expressed mRNA in the presence of chemical substance/The level of expressed mRNA in the absence of chemical substance: 1.5
Yeast gene YMR186W
  The level of expressed mRNA in the presence of chemical substance/ (ratio to absence of chemical substance): 2.4
Yeast gene YMR219W
  The level of expressed mRNA in the presence of chemical substance/The level of expressed mRNA in the absence of chemical substance: 2.1
Yeast gene YMR226C
  The level of expressed mRNA in the presence of chemical substance/The level of expressed mRNA in the absence of chemical substance: 1.6
Yeast gene YMR267W, energy system protein genes, 2 h culture with the chemical, ratio to control without chemical
  The level of expressed mRNA in the presence of chemical substance/ in its absence, gene YMR267W: 0.7
Yeast gene YMR267W, mitochondria-located protein genes, 2 h culture with chemical
  The level of expressed mRNA in the presence of chemical substance/ (ratio to absence), gene YMR267W: 0.7
Yeast gene YMR267W, ratio of DNA chip fluorescence intensity to that without chemical substance
  The level of expressed mRNA in the presence of chemical substance/ in its absence, gene YMR267W: 0.7
Yeast gene YMR275C
  The level of expressed mRNA in the presence of chemical substance/The level of expressed mRNA in the absence of chemical substance: 2.1
Yeast gene YMR276W
  The level of expressed mRNA in the presence of chemical substance/The level of expressed mRNA in the absence of chemical substance: 1.9
Yeast gene YMR278W, ratio of DNA chip fluorescence intensity to that without chemical substance
  The level of expressed mRNA in the presence of chemical substance/ (in its absence), gene YMR278W: 2.5
Yeast gene YMR293C, ratio of DNA chip fluorescence intensity to that without chemical substance
  The level of expressed mRNA in the presence of chemical substance/ (in its absence), gene YMR293C: 0.8
Yeast gene YMR314W
  The level of expressed mRNA in the presence of chemical substance/The level of expressed mRNA in the absence of chemical substance: 2.6

Reference: patent US20050112573A1, “Method of detecting toxic substance” (priority 2001, published 2005)
